Molecules are shown by their SMILES. Activity calls are given as the source filed them. The calls are words filed in the database; no cut-off is given here. A value given as a limit tells only on which side of the number the result lay.

In data set [1] the test system is HT-1080. Briefly: Lethality in human HT-1080 cells assessed as cell survival at 10 uM incubated for 24 hrs by MTT assay relative to control. In kind it is functional. Particulars: read-out: Activity. On the technique in general: Tetrazolium dyes change colour on reduction, which living cells bring about.
Data set [2] concerns HT-1080. Briefly: Lethality in human HT-1080 cells assessed as inhibition of cell viability incubated for 24 hrs by MTT assay. In kind it is functional, cell-based. As to conditions: HT-1080, 24 h.
The nature of data set [3]: Metabolic stability in […] rat microsomes assessed as half life at 1 uM in presence of NADPH by LC-MS analysis. The data set is classed as ADME, Liver, Microsome.
Data set [4] is described as follows: Metabolic stability in rat liver microsomes assessed as intrinsic clearance measured per mg protein at 1 uM in presence of NADPH by LC-MS analysis. The data set is classed as ADME, Microsome. Particulars: read-out: CLH. Background: Liver microsomes are vesicles of endoplasmic reticulum, rich in cytochrome P450 enzymes.
Data set [5] can be described thus: Metabolic stability in human liver microsomes assessed as half life at 1 uM in presence of NADPH by LC-MS analysis. The data set is classed as ADME, Microsome.
Data set [6] can be described thus: Metabolic stability in human liver microsomes assessed as intrinsic clearance measured per mg protein at 1 uM in presence of NADPH by LC-MS analysis. The data set is classed as ADME, Microsome. As to conditions: read-out: CLH.
The target in data set [7] is T1, Cystine/glutamate transporter (Homo sapiens) (UniProt Q9UPY5).
T1 sequence (whole entry): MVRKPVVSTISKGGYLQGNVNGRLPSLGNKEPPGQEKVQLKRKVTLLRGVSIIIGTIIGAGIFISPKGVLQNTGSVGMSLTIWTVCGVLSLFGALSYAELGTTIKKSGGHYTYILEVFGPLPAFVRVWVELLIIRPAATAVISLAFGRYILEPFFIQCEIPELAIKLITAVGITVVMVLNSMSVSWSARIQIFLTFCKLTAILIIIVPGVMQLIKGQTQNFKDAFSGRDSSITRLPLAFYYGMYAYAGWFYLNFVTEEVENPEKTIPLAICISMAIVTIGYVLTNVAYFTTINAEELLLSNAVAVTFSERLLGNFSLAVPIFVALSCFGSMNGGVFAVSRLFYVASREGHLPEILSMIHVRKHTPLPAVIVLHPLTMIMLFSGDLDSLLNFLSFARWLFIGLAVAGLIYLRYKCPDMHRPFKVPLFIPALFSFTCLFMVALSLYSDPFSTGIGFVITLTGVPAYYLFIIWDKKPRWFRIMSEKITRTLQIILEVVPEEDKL
Briefly: Inhibition of Xc- in human HT-1080 cells assessed as decrease in glutamate release at 5 uM incubated for 3 hrs by Amplex red assay. In kind it is cell-based.

In data set [8] the target is T2, Phospholipid hydroperoxide glutathione peroxidase GPX4 (Homo sapiens) (UniProt P36969).
T2 sequence (whole entry): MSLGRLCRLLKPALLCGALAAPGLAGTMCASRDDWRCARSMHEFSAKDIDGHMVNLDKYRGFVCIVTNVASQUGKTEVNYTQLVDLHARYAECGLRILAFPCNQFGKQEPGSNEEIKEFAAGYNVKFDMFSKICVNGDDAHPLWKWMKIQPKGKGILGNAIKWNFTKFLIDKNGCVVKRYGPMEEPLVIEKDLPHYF
Briefly: Inhibition of GPX4 in human HT-1080 cells at 5 uM incubated for 2 hrs. The data set is classed as cell-based.

For the compound `CN(C)C(=O)c1ccc(N2CCC(Cn3cnc4c(C(F)(F)F)cccc43)CC2)cc1Cl`, the viability at 10 µM in data set [1] was under 50%. Still for that read-out and setting: the value for `CC(C)c1ccc(N2CCC(Cn3c(C(F)(F)F)nc4ccccc43)CC2)cc1` was under 50%; that for `CCOc1cccc(-c2nc3ccccc3n2CC2CCN(c3ccc(S(=O)(=O)N(C)C)cc3)CC2)c1` was under 50%. Still for that read-out and setting: as for `FC(F)(F)c1ccc(N2CCC(Cn3c(C(F)(F)F)nc4ccccc43)CC2)cc1Cl`, the figure is under 50%; as for `COc1ccc(N2CCC(Cn3c(C(F)(F)F)nc4ccccc43)CC2)cc1Cl`, under 50%. As to `CN(C)C(=O)c1ccc(N2CCC(Cn3c(C(F)(F)F)nc4ccccc43)CC2)cc1F`, the IC50 – broadly, the concentration that gives 50% inhibition – in data set [2] was 2.11 µM. Regarding `CN(C)c1ccc(CC(=O)N2CCC(Cn3c(C(F)(F)F)nc4ccccc43)CC2)cc1`, the IC50 in data set [2] came to 3.48 µM.

Take `O=C(COc1ccc(Cl)cc1)N1CCC(Cn2c(C(F)(F)F)nc3ccccc32)CC1`: the IC50 in data set [2] was determined as 3.16 µM. Turning to `O=S(=O)(c1ccc(N2CCC(Cn3c(C(F)(F)F)nc4ccccc43)CC2)cc1)N1CCOCC1`, the half-life (as a rule, the time in which the quantity being followed falls by half) at 1 µM in data set [3] stood at 7.4 min; in data set [5], 11.7 min. In addition, the microsomal CLint at 1 µM in data set [4] stood at 187 µL/min/mg; in data set [6] it was 118 µL/min/mg. Besides, the IC50 in data set [2] is 1.89 µM. In the same order, the values of `O=C(c1ccc(N2CCC(Cn3c(C(F)(F)F)nc4ccccc43)CC2)cc1)N1CCCC1` are 8.6 min, 13.2 min, 164 µL/min/mg, 105 µL/min/mg and 1.49 µM. Take `CCN(CC)C(=O)c1ccc(N2CCC(Cn3c(C(F)(F)F)nc4ccccc43)CC2)cn1`: the IC50 in data set [2] worked out at 3.46 µM. `CN(C)S(=O)(=O)c1ccc(N2CCC(Cn3c(-c4ccccc4)nc4ccccc43)CC2)cc1`: the viability at 10 µM in data set [1] is under 50%. Still for that read-out and setting: the value for `CN(C)C(=O)c1ccc(N2CCC(Cn3ccc4ccccc43)CC2)cc1Cl` was under 50%. Consider `CC(C)Oc1ccc(N2CCC(Cn3c(C(F)(F)F)nc4ccccc43)CC2)cc1Cl`, for which the viability at 10 µM in data set [1] is under 50%. The same measure, in the same setting: as for `FC(F)(F)c1nc2ccccc2n1CC1CCN(c2ccc(C3CCCCC3)cc2)CC1`, the figure is under 50%.

As for `CN(C)c1ccc(C(=O)N2CCC(Cn3c(C(F)(F)F)nc4ccccc43)CC2)cc1`, the IC50 in data set [2] worked out at 8.17 µM. On to `CN(C)C(=O)c1ccc(N2CCC(Cn3c(C(F)(F)F)nc4ccccc43)CC2)cc1Cl`, for which the IC50 in data set [2] stood at 2.53 µM.

For the compound `COC(=O)c1ccc(N2CCC(Cn3c(C(F)(F)F)nc4ccccc43)CC2)cc1Cl`, the viability at 10 µM in data set [1] was under 50%. Still for that read-out and setting: as for `CCOc1ccccc1Cc1nc2ccccc2n1CC1CCN(c2ccc(S(=O)(=O)N(C)C)cc2)CC1`, the figure is under 50%; as for `CN(C)C(=O)c1cccc(N2CCC(Cn3c(C(F)(F)F)nc4ccccc43)CC2)c1`, under 50%. On to `CCOc1ccccc1-c1nc2ccccc2n1CC1CCN(c2ccc(S(=O)(=O)N(C)C)cc2)CC1`, for which, in data set [1], the viability at 10 µM is under 50%. Still for that read-out and setting: the value for `CC(=O)Nc1ccc(N2CCC(Cn3c(C(F)(F)F)nc4ccccc43)CC2)cc1Cl` was under 50%; that for `CN(C)C(=O)c1ccc(N2CCC(Cn3cnc4ccccc43)CC2)cc1Cl` was under 50%; that for `CN1C(=O)c2ccc(N3CCC(Cn4c(C(F)(F)F)nc5ccccc54)CC3)cc2C1=O` was under 50%. On to `CCOc1ccccc1-n1c(C(C)N2CCN(C(=O)COc3ccc(Cl)cc3)CC2)nc2ccccc2c1=O` (stereo not given) [ERASTIN], for which the half-life at 1 µM in data set [3] came out at 3.5 min; in data set [5] it was 4 min. Moreover, in data set [7], the inhibition result was “Active”. The figures for the microsomal CLint at 1 µM in data set [4] and in data set [6] were 400 µL/min/mg and 349 µL/min/mg, respectively. In data set [2], the IC50 was 1.52 µM. With `FC(F)(F)c1nc2ccccc2n1CC1CCN(c2ccc(N3CCOCC3)c(Cl)c2)CC1`, the viability at 10 µM in data set [1] was under 50%. With `COC(=O)c1ccc(N2CCC(Cn3c(C(F)(F)F)nc4ccccc43)CC2)cc1S(C)(=O)=O`, the half-maximal inhibitory concentration (IC50) in data set [2] was determined as 6.64 µM.

Take `CC(C)(C)c1ccc(N2CCC(Cn3c(C(F)(F)F)nc4ccccc43)CC2)cc1`: the viability at 10 µM in data set [1] is under 50%. Turning to `CN(C)C(=O)c1ccc(N2CCC(Cn3c(C(F)(F)F)nc4ccccc43)CC2)cc1`, the IC50 in data set [2] is 3.06 µM. On to `COC(=O)c1ccc([C@H]2c3[nH]c4ccccc4c3C[C@H](C(=O)OC)N2C(=O)CCl)cc1`, for which the inhibition result in data set [8] was “Active”. With `CS(=O)(=O)c1cc(N2CCC(Cn3c(C(F)(F)F)nc4ccccc43)CC2)ccc1CO`, the IC50 in data set [2] stood at 7.47 µM. The same measure, in the same setting: the value for `CCN(CC)C(=O)c1ccc(N2CCC(Cn3c(C(F)(F)F)nc4ccccc43)CC2)cc1` was 2.21 µM.

The values above are taken from ChEMBL document CHEMBL5385865, “Discovery and optimization of 2-(trifluoromethyl)benzimidazole derivatives as novel ferroptosis inducers in vitro and in vivo” (Eur J Med Chem, 2023).
